Series [1] in a line: Half life in dog. Particulars: in vivo. The class given is ADME, organism-based, Canis lupus familiaris.
Series [2] is described as follows: Oral bioavailability in rat. The class given is ADME, organism-based. Particulars: in vivo.
The next series has as its target Histamine H1 receptor (Homo sapiens, UniProt P35367).
A short description of series [3]: Half life in rat. Format: ADME, organism-based. Particulars: in vivo.
Series [4] can be described thus: Oral bioavailability in dog. Particulars: in vivo. Format: ADME, organism-based, Canis lupus familiaris.
Series [5] has as its target T1, Histamine H3 receptor (Homo sapiens, UniProt Q9Y5N1). Put plainly: Binding affinity to human histamine H3 receptor.
The test system of series [6] is Cavia porcellus. Nature of the series: Antiinflammatory activity in iv dosed wheal and flare guinea pig model. Particulars: read-out: ID50 (the source's name). The class given is functional.
Series [7] has as its system Cavia porcellus. Nature of the series: Antiinflammatory activity in po dosed wheal and flare guinea pig model. Particulars: read-out: ID50 (the source's name). The class given is functional.
Series [8] has as its target T1, Histamine H3 receptor. Put plainly: Inverse agonist activity at human histamine H3 receptor by GTPgammaS binding assay. The class given is functional. In general terms: Binding of GTPγS marks nucleotide exchange on a G protein.
Series [9] is described as follows: Half life in monkey. Format: ADME, organism-based, Macaca mulatta. Particulars: rhesus monkey, in vivo.
Series [10] is described as follows: Oral bioavailability in monkey. Format: ADME, organism-based, Macaca mulatta. Particulars: rhesus monkey, in vivo.
In series [11] the target is Histamine H3 receptor (Rattus norvegicus, UniProt Q9QYN8). Nature of the series: Binding affinity to rat cortical histamine H3 receptor.
Histamine H3 receptor (Rattus norvegicus, UniProt Q9QYN8), sequence (Q9QYN8 whole entry): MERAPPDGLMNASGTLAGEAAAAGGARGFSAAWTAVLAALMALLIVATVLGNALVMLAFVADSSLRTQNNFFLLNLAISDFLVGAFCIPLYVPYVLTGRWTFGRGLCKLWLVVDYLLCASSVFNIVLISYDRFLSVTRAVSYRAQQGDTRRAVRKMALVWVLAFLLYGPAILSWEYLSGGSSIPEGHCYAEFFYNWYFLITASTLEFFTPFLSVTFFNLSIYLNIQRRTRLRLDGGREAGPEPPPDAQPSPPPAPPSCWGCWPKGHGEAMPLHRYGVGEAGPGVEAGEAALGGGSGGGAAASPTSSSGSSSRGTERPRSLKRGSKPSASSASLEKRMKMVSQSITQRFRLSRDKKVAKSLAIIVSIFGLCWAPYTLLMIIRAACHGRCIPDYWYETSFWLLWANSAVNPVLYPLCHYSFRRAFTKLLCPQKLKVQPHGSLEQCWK
Series [12] in a line: Oral bioavailability in rat at 1 mg/kg. The class given is ADME, organism-based. Particulars: in vivo.
Series [13] can be described thus: Half life in rat at 1 mg/kg, po. The class given is ADME, organism-based. Further details: dose 1 mg/kg, route oral. Particulars: in vivo.
The next series has as its system Rhesus monkey. Put plainly: Reduction of food intake in rhesus monkey at 1 mg/kg. Also noted: scale not given: the % may be the effect or the level left. The class given is functional, Macaca mulatta.
In series [14] the test system is Rattus norvegicus. Put plainly: Increase in paraventricular histamine levels in normal rat at 15 mg/kg, po. The class given is functional.
The nature of series [15]: Half life in human plasma. Format: ADME, cell-free.
The nature of series [16]: Oral bioavailability in dog at 1 mg/kg. Format: ADME, organism-based, Canis lupus familiaris. Particulars: in vivo.
Series [17] in a line: Oral bioavailability in monkey at 1 mg/kg. Format: ADME, organism-based, Macaca mulatta. Particulars: rhesus monkey, in vivo.
A short description of series [18]: Volume of distribution in rat. The class given is ADME, organism-based. Particulars: in vivo.
The test system of series [19] is Rattus norvegicus. Nature of the series: Efficacy in sc dosed novel object recognition 24 hrs delay rat model. Format: functional. Particulars: read-out: MED.
The test system of series [20] is Rattus norvegicus. Nature of the series: Increase in histamine release in sc dosed rat prefrontal cortex. The class given is functional. Particulars: read-out: MED.
For series [21], the system named is Rattus norvegicus. Nature of the series: Increase in acetyl choline release in sc dosed rat prefrontal cortex. The class given is functional. Particulars: read-out: MED.

Some results are limits rather than exact numbers.

A word on the half-life: it is how long it takes for the measured level to halve. In general, bioavailability refers to the share of a dose that reaches the circulation, judged against a reference dose that is usually intravenous. The IC50 is the concentration at which inhibition is half-maximal. Broadly, the Vd is the apparent volume that relates the amount in the body to the concentration in plasma or blood.

T1 sequence (Q9Y5N1 whole entry): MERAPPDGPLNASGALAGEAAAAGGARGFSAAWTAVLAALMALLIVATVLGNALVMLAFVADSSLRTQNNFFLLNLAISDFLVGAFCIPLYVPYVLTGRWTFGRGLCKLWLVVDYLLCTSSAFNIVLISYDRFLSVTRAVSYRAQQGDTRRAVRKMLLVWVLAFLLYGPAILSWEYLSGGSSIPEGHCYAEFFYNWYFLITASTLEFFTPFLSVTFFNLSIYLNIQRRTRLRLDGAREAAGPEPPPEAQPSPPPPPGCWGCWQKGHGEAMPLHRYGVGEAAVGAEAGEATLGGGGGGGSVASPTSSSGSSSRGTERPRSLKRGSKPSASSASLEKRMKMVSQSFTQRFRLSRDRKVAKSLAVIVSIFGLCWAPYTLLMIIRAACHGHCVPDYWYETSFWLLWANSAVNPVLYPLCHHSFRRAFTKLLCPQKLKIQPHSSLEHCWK
Histamine H1 receptor, sequence (P35367 whole entry): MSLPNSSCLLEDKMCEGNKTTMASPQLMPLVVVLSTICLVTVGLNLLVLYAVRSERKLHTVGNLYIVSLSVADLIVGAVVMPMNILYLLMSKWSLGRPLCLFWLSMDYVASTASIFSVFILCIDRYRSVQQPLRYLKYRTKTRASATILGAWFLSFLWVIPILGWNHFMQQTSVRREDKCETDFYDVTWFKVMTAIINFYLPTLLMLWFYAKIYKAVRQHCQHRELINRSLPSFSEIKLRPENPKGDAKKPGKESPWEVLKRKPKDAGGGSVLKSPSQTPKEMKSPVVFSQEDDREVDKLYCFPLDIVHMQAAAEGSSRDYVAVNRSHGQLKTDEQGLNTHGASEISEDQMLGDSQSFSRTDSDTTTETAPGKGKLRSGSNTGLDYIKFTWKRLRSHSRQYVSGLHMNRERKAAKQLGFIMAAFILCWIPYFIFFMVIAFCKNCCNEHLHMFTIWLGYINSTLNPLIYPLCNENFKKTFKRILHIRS

Turning to `CS(=O)(=O)c1ccc(C(=O)N2CCN(c3ccc(OC4CCN(C5CCC5)CC4)cc3)CC2)cc1`, the half-life in series [1] was 5 h; in series [3], 2 h. Besides, the bioavailability was greater than 50% in series [2] and 90% in series [4]. Besides, the values for the Ki on Histamine H1 receptor and at Histamine H3 receptor [5] (read-out: pKi (converted)) were 2510 nM and 0.316 nM, respectively.

`CC1(C)CCCN(CCCOc2ccc(C3CCN(C(=O)c4ccc(CCC(=O)O)c5ccccc45)CC3)cc2)C1`: the ED50 in the series on Cavia porcellus [6] turned out to be 0.6 mg/kg; with Cavia porcellus [7], 2.8 mg/kg. For the same compound, the Ki on Histamine H1 receptor was 12.6 nM; on Histamine H3 receptor [5] (read-out: pKi (converted)), 50.1 nM.

On Histamine H3 receptor [8], `CC(C)N1CCCN(C(=O)C2CCN(c3ccc(C(F)(F)F)nc3)CC2)CC1` had an IC50 of 2.51 nM. Further, the Ki at Histamine H3 receptor [5] (read-out: pKi (converted)) was 0.316 nM.

For the compound `N#Cc1ccc(-c2ccc(OCCCN3CCCN(C(=O)[C@@H](Cc4cscn4)NC(=O)c4ccco4)CC3)cc2)cc1`, the Ki on Histamine H3 receptor [5] (read-out: pKi (converted)) is 1.58 nM.

On to `C[C@@H]1CCCN1CCc1cc2cc(-c3cn[nH]c3)ccc2o1`, for which the half-life in series [1] was 1.7 h; in series [9], 1.8 h; in series [3], 2.9 h. Besides, the bioavailability in series [2] came to 26%; in series [4] it was 30%; in series [10], 8%. Also, the Ki on Histamine H3 receptor [5] (read-out: pKi (converted)) was 0.501 nM; at Histamine H3 receptor [11] (read-out: pKi (converted)), 3.16 nM.

In [12], `C[C@@H]1CCCN1CCc1ccc2cc(-n3ncccc3=O)ccc2c1` registered a bioavailability of 84%. Moreover, the Ki on Histamine H3 receptor [5] (read-out: Ki) came to 0.8 nM. Besides, the half-life in [13] was 4.9 h.

For `O=C(/C=C/c1ccc(C(F)(F)F)cc1)N1CCC[C@H]1CN1CCCC1`, the Activity in the series with Rhesus monkey worked out at 75%; in the series on Rattus norvegicus [14], 339%.

`C[C@@H]1CCCN1CCc1ccc2cc(-c3ccc(C#N)cc3)ccc2c1` showed a half-life in series [3] of 5.5 h.

As for `C[C@@H](N)C(=O)N1CCN(CCCOc2ccc(C(=O)C3CC3)cc2)CC1`, the Ki on Histamine H3 receptor [5] (read-out: pKi (converted)) was 794 nM.

In turn, `C[C@H](Cc1c[nH]cn1)/N=C(\c1ccccc1)c1ccccc1O` registered a half-life in series [15] greater than 24 h.

Take `C[C@@H]1CCCN1CCc1cc2cc(-c3ccc(C#N)cc3)ccc2o1`: the bioavailability in series [16] was determined as 74%; in series [12] it was 52%; in series [17] it was 89%.

With `C[C@@H](NC(=O)c1ccco1)C(=O)N1CCN(CCCOc2ccc(C(=O)C3CC3)cc2)CC1`, the Ki on Histamine H3 receptor [11] (read-out: pKi (converted)) is 0.631 nM.

In series [2], `Cc1cc2ncc(-c3ccc4cc(CCN5CCC[C@H]5C)ccc4n3)c(C)n2n1` returned a bioavailability of 90%. The same compound had a half-life in series [3] of 5.3 h.

`C[C@H]1CC[C@H](C)N1CCCOc1ccc(-c2ccc(C(=O)N3CCOCC3)cc2)cc1` (single isomer, unassigned) [A-349,821]: on Histamine H3 receptor [5] (read-out: pKi (converted)), the Ki was 1.58 nM.

For the compound `CC(C)(C)CCC#C[C@@H]1C[C@H]1c1c[nH]cn1` [CIPRALISANT], the Ki on Histamine H3 receptor [11] (read-out: Ki) stood at 0.18 nM.

Consider `CNC(=O)c1ccc(Oc2ccc3c(c2)CCN(C2CCC2)CC3)nc1` [GSK189254], for which the Ki on Histamine H3 receptor [11] (read-out: pKi (converted)) was 0.631 nM.

Take `O=c1c2ccccc2c(Cc2ccc(Cl)cc2)nn1C[C@H]1CCCN1CCCCc1ccc(OCCCN2CCCCCC2)cc1` [GSK-1004723]: the Ki on Histamine H1 receptor is 15.8 nM.

Take `c1cc(OCCCN2CCCCC2)ccc1CN1CCCCC1` [JNJ-5207852]: the Vd in series [18] was greater than 100 L/kg. The half-life in series [3] is 15 h.

`CCNC(=O)[C@H]1C[C@@](F)(c2ccc(CN3CCCC3)c(F)c2)C1` [PF-03654746]: the minimal effective dose in the series with Rattus norvegicus [19] worked out at 0.32 mg/kg; with Rattus norvegicus [20], 1 mg/kg; in the series on Rattus norvegicus [21], 3.2 mg/kg.
